The target in this experiment is Delta-type opioid receptor (Homo sapiens, UniProt P41143). Briefly: Displacement of [3H]DADLE from human delta opioid receptor expressed in CHO cells after 2 hrs by liquid scintillation counting. Background: Loss of bound radioactivity is the signal in a displacement assay; it reports binding, not function.

Experimental findings from BindingDB's records for doi:10.1016/j.ejmech.2013.06.030 (National Institute On Drug Abuse and The National Institute …, 2013) are described below.

Chain of Delta-type opioid receptor (P41143 whole entry): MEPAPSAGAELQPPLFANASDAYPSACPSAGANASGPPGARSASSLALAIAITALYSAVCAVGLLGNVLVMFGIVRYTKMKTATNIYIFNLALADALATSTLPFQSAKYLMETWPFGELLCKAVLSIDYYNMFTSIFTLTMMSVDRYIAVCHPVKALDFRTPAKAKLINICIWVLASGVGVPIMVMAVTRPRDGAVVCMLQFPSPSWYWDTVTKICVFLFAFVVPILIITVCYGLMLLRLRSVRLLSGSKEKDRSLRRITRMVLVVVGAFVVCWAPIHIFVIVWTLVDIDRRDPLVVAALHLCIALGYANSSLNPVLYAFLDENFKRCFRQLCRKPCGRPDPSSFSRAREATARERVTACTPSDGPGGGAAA

Regarding `Oc1cccc([C@@]23CCN(CCc4ccccc4)[C@H](C[C@@H](O)C2)C3)c1`, the Ki worked out at 876 nM. `C[C@H]1C[C@H]2C[C@](c3cccc(O)c3)(CCN2CCc2ccccc2)C1`: the Ki came to 260 nM. `C[C@H]1CC[C@@]2(c3cccc(O)c3)CCN(C)[C@@H]1C2` came in with an inhibitory constant (Ki) of 139 nM. `Oc1cccc([C@@]23CCN(CCc4ccccc4)[C@@H](C[C@H](c4ccccc4)C2)C3)c1`: the affinity, expressed as Ki, was 318 nM. `Oc1cccc([C@]23CCN(CCc4ccccc4)[C@H](C2)[C@H]2CCCC[C@@H]2C3)c1` returned a Ki of 103 nM. The same measure for `C[C@H]1C[C@H]2C[C@](c3cccc(O)c3)(CCN2C)C1`: 721 nM. `CN1CC[C@]2(c3cccc(O)c3)C[C@@H](c3ccccc3)C[C@H]1C2` gave an inhibitory constant (Ki) of 583 nM. The compound `C[C@H]1CC[C@@]2(c3cccc(O)c3)CCN(CCc3ccccc3)[C@@H]1C2` displayed an inhibition constant (Ki) of 126 nM. This Ki is about 4.6-fold lower than that of the compound before.

As usually defined, the Ki is the equilibrium dissociation constant of an inhibitor or competing ligand from its target. Low values mean higher affinity, high ones lower affinity.
